Data as given in patent US20210403567A1, “METHODS OF TREATING CERVICAL CANCER BY ADMINISTERING A PD-1 INHIBITOR” (priority 2020, published 2021).
“And” between values parts separate entries of the source, which are not always exact repeats. Equal entries are not always repeated. Where two headings read alike, the source gives them in different places. Marks after values point to notes of the source that are not given here.

Legend:
[1] = tested on: recurrent or metastatic cervical cancer that has progressed after first-line platinum-based treatment
[2] = tested on: recurrent or metastatic cervical cancer; assay: Phase 3 trial, cemiplimab versus IC chemotherapy: quality of life, EORTC QLQ-C30 (GHS/QoL, functioning and symptom scales), MMRM LS mean change from baseline; type: in vivo, human; details: for Overall difference in LS mean change from baseline (95% CI), GHS/QoL / Overall difference in LS mean change from baseline (95% CI), Physical functioning / Overall difference in LS mean change from baseline (95% CI), Role functioning: EORTC QLQ-C30, positive numbers favor cemiplimab; for Overall difference in LS mean change from baseline (95% CI), GHS/QoL / Overall difference in LS mean change from baseline (95% CI), Physical functioning / Overall difference in LS mean change from baseline (95% CI), Role functioning / Overall difference in LS mean change from baseline (95% CI), Appetite loss / Overall difference in LS mean change from baseline (95% CI), Fatigue / Overall difference in LS mean change from baseline (95% CI), Pain: cemiplimab minus chemotherapy; for Overall difference in LS mean change from baseline (95% CI), Appetite loss / Overall difference in LS mean change from baseline (95% CI), Fatigue / Overall difference in LS mean change from baseline (95% CI), Pain: EORTC QLQ-C30 symptom scale, negative numbers favor cemiplimab
Procedure: QOL is measured by the EORTC QLQ-C30.
Quality of Life Questionnaires: Patient-reported outcomes are measured using the validated patient self-administered EORTC QLQ-C30 questionnaire. Patients are asked to complete these questionnaires prior to any study procedures being performed at a given study visit (during the on-study/treatment and follow-up periods).
QoL: Longitudinal change from baseline at each PRO assessment in the GHS/QoL and PF scales was analyzed using a mixed model with repeated measures (MMRM). Higher scores on these scales indicate better health status/function. […] The model generated least squares (LS) mean estimates, standard errors, 95% CIs and p-values (where applicable) for mean changes from baseline on each PRO assessment.
At baseline and Day 1 of each treatment cycle (up to 16), patients were administered the EORTC QLQ-030. Mixed-effects repeated measures models estimated least squares (LS) mean change from baseline across all scales. Responder analyses determined the proportions with clinically meaningful (using 10-point threshold) improvement or deterioration, or stability on QLQ-030.

[3] = cemiplimab vs Gemcitabine (n = 108 vs 121)
[4] = cemiplimab vs Irinotecan (n = 26 vs 19)
[5] = cemiplimab vs Pemetrexed (n = 119 vs […])
[6] = cemiplimab vs Topotecan (n = 20 vs 21)
[7] = cemiplimab vs Vinorelbine (n = 31 vs 32)
[8] = subgroup with IC chemotherapy selected prior to randomisation: Gemcitabine (n = 108 vs 121)
[9] = subgroup with IC chemotherapy selected prior to randomisation: Irinotecan (n = 26 vs 19)
[10] = Grade 3-5, cemiplimab N=300, chemotherapy N=290
[11] = any grade, cemiplimab N=300, chemotherapy N=290

## cemiplimab
[1]; [3]
  OS HR, cemiplimab vs individual IC chemotherapy: HR; 0.76
  PFS HR, cemiplimab vs individual IC chemotherapy: HR; 0.73
[1]; [4]
  OS HR, cemiplimab vs individual IC chemotherapy: HR; 0.69
  PFS HR, cemiplimab vs individual IC chemotherapy: HR; 0.77
[1]; [5]
  OS HR, cemiplimab vs individual IC chemotherapy: HR; 0.71
  PFS HR, cemiplimab vs individual IC chemotherapy: HR; 0.70
[1]; [6]
  OS HR, cemiplimab vs individual IC chemotherapy: HR; 0.78
  PFS HR, cemiplimab vs individual IC chemotherapy: HR; 0.90
[1]; [7]
  OS HR, cemiplimab vs individual IC chemotherapy: HR; 0.77
  PFS HR, cemiplimab vs individual IC chemotherapy: HR; 1.21
[1]; gemcitabine, pemetrexed, vinorelbine, topotecan, irinotecan subgroups
  OS, PFS and ORR versus each IC chemotherapy treatment: improvements with cemiplimab versus each IC chemotherapy treatment
[1]; [8]
  Median OS (95% CI): 10.7 (9.2-13.3) months
  Median PFS (95% CI): 2.8 (2.6-4.3) months
  ORR: 17.6%
[1]; [9]
  Median OS (95% CI): 15.8 (11.2-NE) months
  Median PFS (95% CI): 6.9 (1.9-13.8) months
  ORR: 23.1%
[10]
  Sponsor-identified immune-related AEs: Led to death: 0 n (%)
  Treatment-emergent AEs that led to death: 5 (1.7) n (%)
  Treatment-related AEs: Led to death: 0 n (%)
[11]
  Number of patients with any TEAE resulting in death: 5 n (%) and 5 (1.7) n (%)
  Sponsor-identified immune-related AEs: Led to death: 0 n (%)
  Treatment-related AEs: Led to death: 0 n (%)
In vivo
  AEs observed, patients: 88%
  Grade 3 or higher AEs, patients: 45%
  Number of NCI grade 3/4/5 TEAEs: 299
  Number of TEAEs: 1969
  Number of patients with any TEAE leading to a dose interruption/delay: 75 n (%)
  Number of patients with any TEAE leading to a dose reduction: 0 n (%)
  Number of patients with any serious TEAE: 89 n (%)
  Number of serious TEAEs: 147
  Treatment-emergent AEs that led to discontinuation: 20 (6.7) n (%)
  anemia, patients: 25%
  asthenia, patients: 2%
  constipation, patients: 15%
  decreased appetite, patients: 15%
  fatigue, patients: 17%
  nausea, patients: 18%
  pyrexia, patients: less than 1%
  vomiting, patients: 16%
[2]; AC (post-hoc)
  Overall difference in LS mean change from baseline (95% CI), GHS/QoL: 2.0 (−5.4; 9.3)
  Overall difference in LS mean change from baseline (95% CI), Physical functioning: 2.6 (−4.3; 9.5)
  Overall difference in LS mean change from baseline (95% CI), Role functioning: 8.3 (−0.0; 16.6)
  Overall difference in LS mean change from baseline (95% CI), Appetite loss: −5.9 (−19.8; 2.4)
  Overall difference in LS mean change from baseline (95% CI), Fatigue: −5.9 (−13.9; 2.2)
  Overall difference in LS mean change from baseline (95% CI), Pain: −7.6 (−17.1; 1.9)
[2]; Overall population
  Overall difference in LS mean change from baseline (95% CI), GHS/QoL: 7.8 (3.3; 12.3)*
  Overall difference in LS mean change from baseline (95% CI), Physical functioning: 8.3 (4.3; 12.2)*
  Overall difference in LS mean change from baseline (95% CI), Role functioning: 13.1 (8.3; 17.9)^‡
  Overall difference in LS mean change from baseline (95% CI), Appetite loss: −11.3 (−16.6; −6.0)^‡
  Overall difference in LS mean change from baseline (95% CI), Fatigue: −9.1 (−14.1; −4.0)^‡
  Overall difference in LS mean change from baseline (95% CI), Pain: −10.2 (−16.2; −4.3)^‡
[2]; SCC
  Overall difference in LS mean change from baseline (95% CI), GHS/QoL: 8.5 (3.8; 13.2)^†
  Overall difference in LS mean change from baseline (95% CI), Physical functioning: 8.4 (4.1; 12.6)^†
  Overall difference in LS mean change from baseline (95% CI), Role functioning: 11.4 (6.3; 16.6)^‡
  Overall difference in LS mean change from baseline (95% CI), Appetite loss: −10.9 (−16.6; −5.2)^‡
  Overall difference in LS mean change from baseline (95% CI), Fatigue: −8.6 (−14.0; −3.3)^‡
  Overall difference in LS mean change from baseline (95% CI), Pain: −10.4 (−16.9; −3.8)^‡
[2]; SCC patients, C2D1
  Difference in LS mean change, Cemiplimab versus Chemotherapy, GHS/QoL: 4.14
